# Measurements reported in patent publication US20250213555A1, “SUBSTITUTED TETRAHYDROFURAN ANALOGS AS MODULATORS OF SODIUM CHANNELS” (VERTEX PHARMACEUTICALS INCORPORATED, priority 2021, published 2025).
# pIC50: −log10 of the molar value.
# Molecular target: human Nav 1.8 (Homo sapiens, UniProt Q9Y5Y9)
# Test: E-VIPR assay detecting and measuring Nav inhibition properties
# Format: cell-based
# Settings: HEK cells expressing a truncated form of human Nav 1.8; compound numbers without "*" (not marked as run in the presence of human serum); read-out: measured IC50 value in the E-VIPR Assay
# Summary of the method: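 Nav inhibition was read by E-VIPR: cells were electrically stimulated while coumarin/oxonol FRET emissions were recorded. Cells were HEK expressing a truncated human Nav 1.8 and co-transduced with KIR2.1, and were assayed in 25% final human serum.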
# Sequence of human Nav 1.8 (Q9Y5Y9 126-399 limits assumed): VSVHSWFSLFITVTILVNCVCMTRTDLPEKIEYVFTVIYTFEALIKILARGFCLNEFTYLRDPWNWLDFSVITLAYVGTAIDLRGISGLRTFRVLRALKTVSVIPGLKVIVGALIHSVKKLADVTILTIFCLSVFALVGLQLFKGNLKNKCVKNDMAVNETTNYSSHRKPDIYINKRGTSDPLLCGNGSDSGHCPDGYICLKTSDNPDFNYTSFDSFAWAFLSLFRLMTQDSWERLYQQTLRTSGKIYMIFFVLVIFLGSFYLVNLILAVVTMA
# Sequence of human Nav 1.8 (Q9Y5Y9 660-890 limits assumed): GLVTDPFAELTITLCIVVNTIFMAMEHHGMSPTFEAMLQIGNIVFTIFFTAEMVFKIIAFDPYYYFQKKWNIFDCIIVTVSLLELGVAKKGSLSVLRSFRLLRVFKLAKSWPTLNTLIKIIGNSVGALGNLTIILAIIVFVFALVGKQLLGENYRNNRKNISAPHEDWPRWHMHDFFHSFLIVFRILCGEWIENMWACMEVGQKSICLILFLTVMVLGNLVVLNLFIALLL
# Sequence of human Nav 1.8 (Q9Y5Y9 1148-1722 limits assumed): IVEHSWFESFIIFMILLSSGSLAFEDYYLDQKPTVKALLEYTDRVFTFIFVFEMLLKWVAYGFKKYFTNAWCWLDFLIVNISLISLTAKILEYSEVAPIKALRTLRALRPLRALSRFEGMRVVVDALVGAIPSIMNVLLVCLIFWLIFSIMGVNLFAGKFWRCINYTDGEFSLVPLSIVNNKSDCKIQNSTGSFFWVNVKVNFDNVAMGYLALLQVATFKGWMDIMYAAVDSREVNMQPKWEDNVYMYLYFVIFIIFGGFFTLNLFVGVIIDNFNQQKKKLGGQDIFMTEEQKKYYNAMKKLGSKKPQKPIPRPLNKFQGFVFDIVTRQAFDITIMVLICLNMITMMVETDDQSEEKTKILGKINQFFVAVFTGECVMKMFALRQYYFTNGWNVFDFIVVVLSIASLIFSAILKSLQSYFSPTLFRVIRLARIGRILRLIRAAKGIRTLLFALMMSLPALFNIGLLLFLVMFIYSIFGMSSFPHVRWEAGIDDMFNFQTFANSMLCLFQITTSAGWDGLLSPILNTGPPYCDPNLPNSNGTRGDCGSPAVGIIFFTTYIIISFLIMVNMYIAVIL
row,Compound,pIC50
1,"C[C@H]1[C@@H](c2ccc(F)c(F)c2OCCN2CC3(CCO3)C2)[C@H](C(=O)Nc2ccnc(C(N)=O)c2)O[C@@]1(C)C(F)(F)F [Compound 57, 4-((2R,3S,4S,5R)-3-(2-(2-(1-oxa-6-azaspiro[3.3]heptan-6-yl)ethoxy)-3,4-difluorophenyl)-4,5-dimethyl-5-(trifluoromethyl)tetrahydrofuran-2-carboxamido)picolinamide]",> 8.00
2,"C[C@H]1[C@@H](c2ccc(F)c(F)c2OCC2(C)COC2)[C@H](C(=O)Nc2ccnc(C(N)=O)c2)O[C@@]1(C)C(F)(F)F [Compound 63, 4-((2R,3S,4S,5R)-3-(3,4-difluoro-2-((3-methyloxetan-3-yl)methoxy)phenyl)-4,5-dimethyl-5-(trifluoromethyl)tetrahydrofuran-2-carboxamido)picolinamide]",7.00 to 8.00
3,"C[C@H]1[C@@H](c2ccc(F)c(F)c2OC2CCOCC2)[C@H](C(=O)Nc2ccnc(C(N)=O)c2)O[C@@]1(C)C(F)(F)F [Compound 65, 4-((2R,3S,4S,5R)-3-(3,4-difluoro-2-((tetrahydro-2H-pyran-4-yl)oxy)phenyl)-4,5-dimethyl-5-(trifluoromethyl)tetrahydrofuran-2-carboxamido)picolinamide]",> 8.00
4,CNC(=O)c1cc(NC(=O)[C@@H]2O[C@@](C)(C(F)(F)F)[C@@H](C)[C@H]2c2ccc(F)c(F)c2OCC2COC2)ccn1 [Compound 66],> 8.00
5,"C[C@H]1[C@@H](c2ccc(F)c(F)c2OCC(C)(C)CO)[C@H](C(=O)Nc2ccnc(C(N)=O)c2)O[C@@]1(C)C(F)(F)F [Compound 71, 4-((2R,3S,4S,5R)-3-(3,4-difluoro-2-(3-hydroxy-2,2-dimethylpropoxy)phenyl)-4,5-dimethyl-5-(trifluoromethyl)tetrahydrofuran-2-carboxamido)picolinamide]",6.00 to 7.00
6,"C[C@H]1[C@@H](c2ccc(F)c(F)c2OCc2cnn(C)c2)[C@H](C(=O)Nc2ccnc(C(N)=O)c2)O[C@@]1(C)C(F)(F)F [Compound 73, 4-((2R,3S,4S,5R)-3-(3,4-difluoro-2-((1-methyl-1H-pyrazol-4-yl)methoxy)phenyl)-4,5-dimethyl-5-(trifluoromethyl)tetrahydrofuran-2-carboxamido)picolinamide]",> 8.00
7,"C[C@H]1[C@@H](c2ccc(F)c(F)c2OCCC(C)(C)C#N)[C@H](C(=O)Nc2ccnc(C(N)=O)c2)O[C@@]1(C)C(F)(F)F [Compound 74, 4-((2R,3S,4S,5R)-3-(2-(3-cyano-3-methylbutoxy)-3,4-difluorophenyl)-4,5-dimethyl-5-(trifluoromethyl)tetrahydrofuran-2-carboxamido)picolinamide]",7.00 to 8.00
8,"C[C@H]1[C@@H](c2ccc(F)c(F)c2OCCCC#N)[C@H](C(=O)Nc2ccnc(C(N)=O)c2)O[C@@]1(C)C(F)(F)F [Compound 76, 4-((2R,3S,4S,5R)-3-(2-(3-cyanopropoxy)-3,4-difluorophenyl)-4,5-dimethyl-5-(trifluoromethyl)tetrahydrofuran-2-carboxamido)picolinamide]",> 8.00
9,"C[C@H]1[C@@H](c2ccc(F)c(F)c2OCCC2(C#N)CC2)[C@H](C(=O)Nc2ccnc(C(N)=O)c2)O[C@@]1(C)C(F)(F)F [Compound 77, 4-((2R,3S,4S,5R)-3-(2-(2-(1-cyanocyclopropyl)ethoxy)-3,4-difluorophenyl)-4,5-dimethyl-5-(trifluoromethyl)tetrahydrofuran-2-carboxamido)picolinamide]",> 8.00
10,"COCC(COc1c([C@H]2[C@H](C(=O)Nc3ccnc(C(N)=O)c3)O[C@@](C)(C(F)(F)F)[C@H]2C)ccc(F)c1F)OC (stereo partly drawn) [Compound 78, 4-((2R,3S,4S,5R)-3-(2-(2,3-dimethoxypropoxy)-3,4-difluorophenyl)-4,5-dimethyl-5-(trifluoromethyl)tetrahydrofuran-2-carboxamido)picolinamide]",> 8.00
11,"C[C@H]1[C@@H](c2ccc(F)c(F)c2OC2CC(C#N)C2)[C@H](C(=O)Nc2ccnc(C(N)=O)c2)O[C@@]1(C)C(F)(F)F (stereo partly drawn) [Compound 80, 4-((2R,3S,4S,5R)-3-(2-(3-cyanocyclobutoxy)-3,4-difluorophenyl)-4,5-dimethyl-5-(trifluoromethyl)tetrahydrofuran-2-carboxamido)picolinamide]",> 8.00
12,"C[C@@H](CO)COc1c([C@H]2[C@H](C(=O)Nc3ccnc(C(N)=O)c3)O[C@@](C)(C(F)(F)F)[C@H]2C)ccc(F)c1F [Compound 81, 4-((2R,3S,4S,5R)-3-(3,4-difluoro-2-((S)-3-hydroxy-2-methylpropoxy)phenyl)-4,5-dimethyl-5-(trifluoromethyl)tetrahydrofuran-2-carboxamido)picolinamide]",> 8.00
13,"C[C@H](CO)COc1c([C@H]2[C@H](C(=O)Nc3ccnc(C(N)=O)c3)O[C@@](C)(C(F)(F)F)[C@H]2C)ccc(F)c1F [Compound 82, 4-((2R,3S,4S,5R)-3-(3,4-difluoro-2-((R)-3-hydroxy-2-methylpropoxy)phenyl)-4,5-dimethyl-5-(trifluoromethyl)tetrahydrofuran-2-carboxamido)picolinamide]",> 8.00
14,"C[C@H]1[C@@H](c2ccc(F)c(F)c2OCc2cc[nH]n2)[C@H](C(=O)Nc2ccnc(C(N)=O)c2)O[C@@]1(C)C(F)(F)F [Compound 83, 4-((2R,3S,4S,5R)-3-(2-((1H-pyrazol-3-yl)methoxy)-3,4-difluorophenyl)-4,5-dimethyl-5-(trifluoromethyl)tetrahydrofuran-2-carboxamido)picolinamide]",> 8.00
15,"CNC(=O)c1cc(NC(=O)[C@@H]2O[C@@](C)(C(F)(F)F)[C@@H](C)[C@H]2c2ccc(F)c(F)c2OCCO)cc[n+]1[O-] [Compound 84, 4-((2R,3S,4S,5R)-3-(3,4-difluoro-2-(2-hydroxyethoxy)phenyl)-4,5-dimethyl-5-(trifluoromethyl)tetrahydrofuran-2-carboxamido)-2-(methylcarbamoyl)pyridine 1-oxide]",7.00 to 8.00
16,"C[C@H]1[C@@H](c2ccc(F)c(F)c2OCCc2cn(C)cn2)[C@H](C(=O)Nc2ccnc(C(N)=O)c2)O[C@@]1(C)C(F)(F)F [Compound 85, 4-((2R,3S,4S,5R)-3-(3,4-difluoro-2-(2-(1-methyl-1H-imidazol-4-yl)ethoxy)phenyl)-4,5-dimethyl-5-(trifluoromethyl)tetrahydrofuran-2-carboxamido) picolinamide]",> 8.00

# Other lines, results leading:
row,pIC50,Compound
1,> 8.00,"C[C@H]1[C@@H](c2ccc(F)c(F)c2OC2COC2)[C@H](C(=O)Nc2ccnc(C(N)=O)c2)O[C@@]1(C)C(F)(F)F [Compound 58, 4-((2R,3S,4S,5R)-3-(3,4-difluoro-2-(oxetan-3-yloxy)phenyl)-4,5-dimethyl-5-(trifluoromethyl)tetrahydrofuran-2-carboxamido) picolinamide]"
2,> 8.00,"C[C@H]1[C@@H](c2ccc(F)c(F)c2OCc2nccn2C)[C@H](C(=O)Nc2ccnc(C(N)=O)c2)O[C@@]1(C)C(F)(F)F [Compound 61, 4-((2R,3S,4S,5R)-3-(3,4-difluoro-2-((1-methyl-1H-imidazol-2-yl)methoxy)phenyl)-4,5-dimethyl-5-(trifluoromethyl)tetrahydrofuran-2-carboxamido)picolinamide]"
3,> 8.00,"C[C@H]1[C@@H](c2ccc(F)c(F)c2OCCCN2CCOCC2)[C@H](C(=O)Nc2ccnc(C(N)=O)c2)O[C@@]1(C)C(F)(F)F [Compound 62, 4-((2R,3S,4S,5R)-3-(3,4-difluoro-2-(3-morpholinopropoxy)phenyl)-4,5-dimethyl-5-(trifluoromethyl)tetrahydrofuran-2-carboxamido)picolinamide]"
4,> 8.00,"C[C@H]1[C@@H](c2ccc(F)c(F)c2OCC2(F)COC2)[C@H](C(=O)Nc2ccnc(C(N)=O)c2)O[C@@]1(C)C(F)(F)F [Compound 64, 4-((2R,3S,4S,5R)-3-(3,4-difluoro-2-((3-fluorooxetan-3-yl)methoxy)phenyl)-4,5-dimethyl-5-(trifluoromethyl)tetrahydrofuran-2-carboxamido)picolinamide]"
5,> 8.00,"C[C@H]1[C@@H](c2ccc(F)c(F)c2OCC#N)[C@H](C(=O)Nc2ccnc(C(N)=O)c2)O[C@@]1(C)C(F)(F)F [Compound 69, 4-((2R,3S,4S,5R)-3-(2-(cyanomethoxy)-3,4-difluorophenyl)-4,5-dimethyl-5-(trifluoromethyl)tetrahydrofuran-2-carboxamido)picolinamide]"
6,> 8.00,"C[C@H]1[C@@H](c2ccc(F)c(F)c2OCC2COC2)[C@H](C(=O)Nc2ccnc(C(N)=O)c2)O[C@@]1(C)C(F)(F)F [Compound 70, 4-((2R,3S,4S,5R)-3-(3,4-difluoro-2-(oxetan-3-ylmethoxy)phenyl)-4,5-dimethyl-5-(trifluoromethyl)tetrahydrofuran-2-carboxamido)picolinamide]"
7,> 8.00,"C[C@H]1[C@@H](c2ccc(F)c(F)c2OCCCO)[C@H](C(=O)Nc2ccnc(C(N)=O)c2)O[C@@]1(C)C(F)(F)F [Compound 72, 4-((2R,3S,4S,5R)-3-(3,4-difluoro-2-(3-hydroxypropoxy)phenyl)-4,5-dimethyl-5-(trifluoromethyl)tetrahydrofuran-2-carboxamido)picolinamide]"
8,> 8.00,"C=C(COc1c([C@H]2[C@H](C(=O)Nc3ccnc(C(N)=O)c3)O[C@@](C)(C(F)(F)F)[C@H]2C)ccc(F)c1F)C(F)(F)F [Compound 75, 4-((2R,3S,4S,5R)-3-(3,4-difluoro-2-((2-(trifluoromethyl)allyl)oxy)phenyl)-4,5-dimethyl-5-(trifluoromethyl)tetrahydrofuran-2-carboxamido)picolinamide]"
9,7.00 to 8.00,"CC(=O)COc1c([C@H]2[C@H](C(=O)Nc3ccnc(C(N)=O)c3)O[C@@](C)(C(F)(F)F)[C@H]2C)ccc(F)c1F [Compound 79, 4-((2R,3S,4S,5R)-3-(3,4-difluoro-2-(2-oxopropoxy)phenyl)-4,5-dimethyl-5-(trifluoromethyl)tetrahydrofuran-2-carboxamido)picolinamide]"
